Literature values, collected in US10485754B2, “Method for the production of a sodium ion-free effervescent tablet, powder or granulate having a high X ion content, where X can be a variety of substances” (BIOFAR LABORATOIRES, priority 2014, dated 2019).

O=C([O-])[O-].[Ca+2] [calcium carbonate]
calcium carbonate that can be dissolved in one liter of water (water): 0.014 grams in one liter of water
calcium carbonate that can be dissolved in one liter of water with CO2 (with CO2 soda in the water): up to 16.6 grams in one liter of water
